Results published in patent US20070059242A1, “METHODS TO IDENTIFY THERAPEUTIC AGENTS” (priority 2005, published 2007).

Columns and labels:
[1] = tested on: Class A scavenger receptor (SR-A); experiment: Scavenger receptor expression by flow cytometry, SR-A; assay type: cell-based, murine; details: for upregulation of SR-A: J774A.1, 25 μM with LDL (100 μg/ml protein), 6 h; for SR-A expression: cultured macrophages, in the absence of LDL
Procedure: (§1) Cell surface CD36 and SR-A were measured by flow cytometry using CD36 (BD Biosciences Pharmingen, San Diego, Calif.) and CD204 (Serotec, Oxford, UK) specific monoclonal antibodies. See Liao et al. (2000) Arterioscler. Thromb. Vasc. Biol. 20: 1968-75; Hu et al. (1996) Blood 87: 2020-28. Murine macrophage J774A.1 cells were serum-starved overnight in media with 0.5% BSA. Cells (1×10^6) treated with cholesterol ozonation products or cholesterol ozonation product complexed with LDL for specified times were then washed twice with PBS. After harvesting the cells by scraping, they were fixed with 6% paraformaldehyde for 20 min. Cells were then resuspended in PBS containing 2% heat-inactivated FCS, 0.05% NaN3 and appropriate primary antibody, antibody conjugate or isotype control (1:100 dilution) and incubated on ice for 30 min. Expression of either CD36 or SR-A was determined with CD36 (BD Biosciences Pharmingen, San Diego, Calif.) and CD204 (Serotec, Oxford, U.K.) specific monoclonal antibodies, respectively. After washing off the primary antibody, secondary antibodies were added, cells were washed again, then analyzed on a FACS calibur 2 (Becton Dickinson, Sparks, Md.) flow cytometer and analyzed by CellQuant software. Results were expressed as mean fluorescence intensity±standard error of the mean (SEM) of at least duplicate determinations. Significance was determined using a student two-tail t test, with (*) indicating p<0.05, and (**) indicating p<0.01 versus the control.

[2] = tested on: J774A.1 macrophages; experiment: Modified Boyden chamber migration (chemotaxis) assay; assay type: cell-based, murine; details: for recruitment (migration) of macrophages: 0-25 μM, 4 h
Procedure: Chemotaxis and invasion assays were performed using a modified Boyden chamber migration assay. Zwirner et al. (1998) Eur. J. Immunol. 28: 1570-77; Wilkinson (1988) Methods Enzymol. 162: 38-50. Assays were set up on MultiScreen-MIC plates (Millipore, Billerica, Mass., USA) with polyvinylpyrrolidone-free polycarbonate membranes (5 μm pore size). Cells (murine macrophage J774A.1) were washed and resuspended in serum-free DMEM containing 0.2% BSA at 1×10^6 cells/ml. Fifty microliters of cells were added to the upper wells and 150 μl of chemoattractant in DMEM/0.2% BSA were added to the lower wells of the microchamber. Incubation time was for 4 h at 37° C. in an 8% CO2 atmosphere. After swiping cells off the upper side of the membrane, cells on the lower side were visualized by either staining and phase contrast microscopy, or fluorescence. Cells that had adhered to the membrane were stained using a DiffQuik staining kit (Dade Behring, Newark, Del.). Each experiment was performed in triplicate and the numbers of migrating cells were counted in five fields at ×200. Cells harvested with PBS-EDTA for fluorescent labeling were washed two times with PBS, then resuspended in serum-free medium containing calcein AM (5 μM). Cells were incubated for 30 min (37° C., 5% CO2) with gentle intermittent mixing. Calcein-labeled cells were washed twice, and calcein fluorescence ([…]) was measured using a SPECTRAmax™ GEMINI dual-scanning microplate spectrofluorometer. Fluorescence measurements were compared to a standard curve, generated by dilution of cells in PBS/BSA in 100 μl, dispensed into 96-well plates. Fluorescence was quantified as described above.

[3] = tested on: E-selectin; experiment: Endothelial adhesion molecule expression ELISA, E-selectin; assay type: cell-based, human; details: for upregulation of E-selectin expression relative to vehicle control: HAAE-1, 4 h, 25 μM in the presence of LDL (100 μg/mL protein), or lipoprotein alone; for selectin (E-selectin) expression: HAAE-1, not complexed with LDL
Procedure: Endothelial cell surface adhesion molecule expression was measured by ELISA, using anti-human CD54 (ICAM-1), CD106 (VCAM-1) and CD62E (E-Selectin) antibodies (Leinco Technologies, Inc., St. Louis, Mo.). The ELISA method was modified from previously described procedures.
Cells were then incubated with antibodies to VCAM-1, E-selectin, or ICAM-1 diluted 1:400 in PBS containing 5% FCS at 37° C. for 30 min. Wells were washed two times with PBS, then incubated with horseradish peroxidase (HRP)-conjugated goat anti-mouse IgG (Southern Biotechnology Associates, Birmingham, Ala., USA) in PBS/5% FCS at 37° C. for 30 min. The wells were washed four times with PBS, then incubated with H2O2/3,3′,5,5′-tetramethyl-benzidine peroxidase substrate (Pierce Chemical, Rockford, Ill., USA) for 30 min in the dark. The reaction was stopped by adding 25 μl of 8 N H2SO4, and the plates read on a microplate reader, blanking on wells stained with only secondary antibody. Each assay was performed in triplicate and the data are reported as the mean±SEM as a percentage of the expression level of the vehicle. To study the effect of cholesterol ozonation product 5a concentration (5-50 μM) on E-selectin expression, the assay was performed in an identical fashion as described above, with each point being the mean±SEM of at least duplicate measurements.

[4] = tested on: THP-1 monocytes; experiment: Monocyte morphology changes (differentiation into macrophages); assay type: cell-based, human; details: for THP-1 cell adherence (differentiation into macrophages): 12.5 or 25 μM, 7 days
Procedure: THP-1 monocytes in suspension were plated in 8-well chambered slides. […] Media containing appropriate treatment compounds was replaced after 4 days. […]

[5] = tested on: CD36; experiment: Scavenger receptor expression by flow cytometry, CD36; assay type: cell-based, murine
Procedure: as §1

[6] = biological target: LDL / apoB-100 (Homo sapiens, UniProt P04114); experiment: Circular dichroism of LDL secondary structure; details: LDL 100 μg/ml with compound 10 μM, PBS pH 7.4, 37° C.
Procedure: Circular dichroism. […] Spectra were recorded in the peptidic range (200-260 nm). To increase the signal-to-noise ratio, multiple spectra (three) were averaged for each measurement.

[7] = complexed with native LDL (100 μg/ml)
[8] = J774A.1, 25 μM complexed with LDL (100 μg/ml protein), 6 h
[9] = cultured macrophages, in the absence of LDL

Chain of LDL / apoB-100 (P04114 28-4563, species assumed): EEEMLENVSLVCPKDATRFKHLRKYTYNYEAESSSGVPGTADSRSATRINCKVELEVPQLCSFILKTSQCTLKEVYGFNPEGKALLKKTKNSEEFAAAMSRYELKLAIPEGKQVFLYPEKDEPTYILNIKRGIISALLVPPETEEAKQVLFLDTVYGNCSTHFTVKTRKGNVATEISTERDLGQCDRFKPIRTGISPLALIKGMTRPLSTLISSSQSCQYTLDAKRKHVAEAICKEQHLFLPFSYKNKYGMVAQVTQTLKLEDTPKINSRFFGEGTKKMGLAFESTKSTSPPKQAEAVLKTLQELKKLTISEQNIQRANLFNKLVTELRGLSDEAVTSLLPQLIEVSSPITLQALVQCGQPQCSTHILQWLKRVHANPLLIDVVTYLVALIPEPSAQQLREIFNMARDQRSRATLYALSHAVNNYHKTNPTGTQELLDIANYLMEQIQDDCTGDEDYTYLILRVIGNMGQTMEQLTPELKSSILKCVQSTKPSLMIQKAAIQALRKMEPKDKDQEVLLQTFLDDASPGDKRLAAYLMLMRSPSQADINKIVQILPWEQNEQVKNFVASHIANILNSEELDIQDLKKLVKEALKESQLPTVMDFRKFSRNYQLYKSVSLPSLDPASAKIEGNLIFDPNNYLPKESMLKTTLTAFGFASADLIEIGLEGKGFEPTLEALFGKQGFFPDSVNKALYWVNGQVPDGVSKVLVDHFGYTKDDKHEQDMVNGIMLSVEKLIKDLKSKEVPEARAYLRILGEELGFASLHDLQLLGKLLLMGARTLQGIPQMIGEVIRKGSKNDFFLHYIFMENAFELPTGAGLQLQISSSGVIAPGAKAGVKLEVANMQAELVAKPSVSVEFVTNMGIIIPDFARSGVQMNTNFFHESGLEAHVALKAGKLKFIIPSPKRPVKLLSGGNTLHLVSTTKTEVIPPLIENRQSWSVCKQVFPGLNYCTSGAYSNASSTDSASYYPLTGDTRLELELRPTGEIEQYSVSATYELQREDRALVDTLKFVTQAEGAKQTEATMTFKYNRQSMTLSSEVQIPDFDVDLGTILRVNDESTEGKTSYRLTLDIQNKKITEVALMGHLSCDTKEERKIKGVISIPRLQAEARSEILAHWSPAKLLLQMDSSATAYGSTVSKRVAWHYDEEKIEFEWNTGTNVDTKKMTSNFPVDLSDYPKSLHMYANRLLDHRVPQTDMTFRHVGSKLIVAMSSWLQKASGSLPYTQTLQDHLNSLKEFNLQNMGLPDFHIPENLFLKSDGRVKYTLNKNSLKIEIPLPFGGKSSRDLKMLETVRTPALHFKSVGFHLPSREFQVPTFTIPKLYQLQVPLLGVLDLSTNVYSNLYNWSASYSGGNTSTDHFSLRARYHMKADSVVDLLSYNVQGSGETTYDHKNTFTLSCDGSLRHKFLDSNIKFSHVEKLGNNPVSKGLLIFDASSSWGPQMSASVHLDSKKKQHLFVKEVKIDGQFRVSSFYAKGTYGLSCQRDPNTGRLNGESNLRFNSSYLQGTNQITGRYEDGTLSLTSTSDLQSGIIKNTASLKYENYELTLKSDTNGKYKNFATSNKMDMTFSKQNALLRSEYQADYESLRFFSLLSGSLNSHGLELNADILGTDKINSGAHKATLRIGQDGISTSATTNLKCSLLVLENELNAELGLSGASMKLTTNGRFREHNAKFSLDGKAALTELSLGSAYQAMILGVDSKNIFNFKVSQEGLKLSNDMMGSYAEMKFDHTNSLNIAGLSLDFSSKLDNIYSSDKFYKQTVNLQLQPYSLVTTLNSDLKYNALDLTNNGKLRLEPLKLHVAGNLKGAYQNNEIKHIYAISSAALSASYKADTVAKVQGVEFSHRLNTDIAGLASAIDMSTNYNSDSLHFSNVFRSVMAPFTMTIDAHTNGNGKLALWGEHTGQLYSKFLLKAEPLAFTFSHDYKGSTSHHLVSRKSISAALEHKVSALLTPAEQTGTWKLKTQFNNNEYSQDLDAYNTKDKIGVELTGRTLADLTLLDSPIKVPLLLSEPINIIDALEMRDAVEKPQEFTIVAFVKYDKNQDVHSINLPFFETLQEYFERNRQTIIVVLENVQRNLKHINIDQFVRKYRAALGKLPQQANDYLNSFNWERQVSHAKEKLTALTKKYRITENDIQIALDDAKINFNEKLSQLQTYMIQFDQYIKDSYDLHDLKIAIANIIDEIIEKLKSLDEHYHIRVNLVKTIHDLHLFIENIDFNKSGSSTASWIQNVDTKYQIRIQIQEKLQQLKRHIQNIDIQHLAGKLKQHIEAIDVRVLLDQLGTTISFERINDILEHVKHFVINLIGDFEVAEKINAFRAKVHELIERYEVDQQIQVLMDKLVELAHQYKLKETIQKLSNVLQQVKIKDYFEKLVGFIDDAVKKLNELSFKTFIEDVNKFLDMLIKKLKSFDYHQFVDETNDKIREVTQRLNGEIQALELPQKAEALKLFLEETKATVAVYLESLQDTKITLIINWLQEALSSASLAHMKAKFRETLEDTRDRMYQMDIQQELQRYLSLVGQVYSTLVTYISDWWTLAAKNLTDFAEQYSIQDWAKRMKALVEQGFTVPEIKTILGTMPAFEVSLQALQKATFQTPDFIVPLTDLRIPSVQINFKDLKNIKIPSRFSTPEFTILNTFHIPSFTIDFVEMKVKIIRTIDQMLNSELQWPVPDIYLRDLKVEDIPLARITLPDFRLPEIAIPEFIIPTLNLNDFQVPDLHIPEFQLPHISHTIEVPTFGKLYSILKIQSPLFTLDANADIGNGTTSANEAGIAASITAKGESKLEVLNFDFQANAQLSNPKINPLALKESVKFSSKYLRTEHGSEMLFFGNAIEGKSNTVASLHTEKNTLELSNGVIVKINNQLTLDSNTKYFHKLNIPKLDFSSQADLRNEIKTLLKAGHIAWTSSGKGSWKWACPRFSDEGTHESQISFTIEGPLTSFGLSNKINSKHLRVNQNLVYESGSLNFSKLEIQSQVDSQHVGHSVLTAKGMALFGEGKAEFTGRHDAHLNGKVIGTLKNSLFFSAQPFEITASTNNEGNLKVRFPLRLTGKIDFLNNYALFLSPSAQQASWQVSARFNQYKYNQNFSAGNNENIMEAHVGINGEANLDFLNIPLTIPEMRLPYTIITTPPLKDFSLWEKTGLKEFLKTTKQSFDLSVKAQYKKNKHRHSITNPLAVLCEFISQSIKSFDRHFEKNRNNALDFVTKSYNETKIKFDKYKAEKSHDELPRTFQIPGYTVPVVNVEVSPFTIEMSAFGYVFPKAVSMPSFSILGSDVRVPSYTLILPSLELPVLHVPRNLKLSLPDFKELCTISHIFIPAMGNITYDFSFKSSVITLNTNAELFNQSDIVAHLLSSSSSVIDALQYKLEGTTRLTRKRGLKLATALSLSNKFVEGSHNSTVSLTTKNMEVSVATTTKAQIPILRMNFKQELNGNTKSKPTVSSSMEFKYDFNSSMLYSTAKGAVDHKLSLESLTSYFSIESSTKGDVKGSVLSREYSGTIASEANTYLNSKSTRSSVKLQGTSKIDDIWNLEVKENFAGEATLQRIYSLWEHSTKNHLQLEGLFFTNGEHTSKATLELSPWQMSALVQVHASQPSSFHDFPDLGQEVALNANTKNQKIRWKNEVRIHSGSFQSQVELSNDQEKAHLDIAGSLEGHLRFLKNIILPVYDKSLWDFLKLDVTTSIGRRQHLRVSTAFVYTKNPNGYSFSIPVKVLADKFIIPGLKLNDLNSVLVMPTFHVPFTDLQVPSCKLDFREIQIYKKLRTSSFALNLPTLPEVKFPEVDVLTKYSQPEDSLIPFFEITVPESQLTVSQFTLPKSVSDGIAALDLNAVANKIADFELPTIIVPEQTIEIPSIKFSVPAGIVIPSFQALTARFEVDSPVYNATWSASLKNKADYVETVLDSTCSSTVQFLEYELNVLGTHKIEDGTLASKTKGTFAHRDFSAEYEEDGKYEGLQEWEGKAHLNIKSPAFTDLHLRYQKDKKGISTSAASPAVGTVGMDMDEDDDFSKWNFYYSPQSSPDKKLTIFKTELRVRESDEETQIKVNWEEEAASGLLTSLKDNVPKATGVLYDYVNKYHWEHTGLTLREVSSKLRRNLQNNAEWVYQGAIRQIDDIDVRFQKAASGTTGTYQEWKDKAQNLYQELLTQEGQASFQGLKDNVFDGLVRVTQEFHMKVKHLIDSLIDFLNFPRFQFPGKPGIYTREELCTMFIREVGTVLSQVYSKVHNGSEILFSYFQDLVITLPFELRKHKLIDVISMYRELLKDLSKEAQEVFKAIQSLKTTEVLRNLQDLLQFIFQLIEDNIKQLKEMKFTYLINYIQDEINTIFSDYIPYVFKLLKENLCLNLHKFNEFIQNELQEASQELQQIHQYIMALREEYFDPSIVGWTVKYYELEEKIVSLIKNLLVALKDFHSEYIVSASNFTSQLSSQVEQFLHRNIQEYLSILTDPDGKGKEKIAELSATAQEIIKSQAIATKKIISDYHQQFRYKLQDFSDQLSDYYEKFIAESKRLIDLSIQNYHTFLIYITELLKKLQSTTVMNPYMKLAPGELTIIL

SMILES	upregulation of SR-A [1]	SR-A expression [1]	recruitment (migration) of macrophages [2]	migration of macrophages ([2]; co-incubated with BSA)	migration of macrophages [2, 7]	upregulation of E-selectin expression relative to vehicle control [3]	selectin (E-selectin) expression [3]	concentration that causes THP-1 cell differentiation [4]	THP-1 cell adherence (differentiation into macrophages) [4]	CD36 expression [5, 8]	CD36 expression [5, 9]	random coil of LDL [6]	α helical structure of LDL [6]	E-selectin levels ([3]; HAAE-1, 1.25 μM complexed with LDL)	E-selectin levels ([3]; HAAE-1, 50 μM complexed with LDL)
CC(C)CCC[C@@H](C)[C@H]1CCC2C3C(CC[C@@]21C)[C@@]1(C)CC[C@H](O)C[C@@]1(O)[C@@H]3C=O (stereo partly drawn) [5a, 3β-Hydroxy-5β-hydroxy-B-norcholestane-6β-carboxaldehyde]	approximately 3 fold	did not increase expression	stimulate dose-dependent recruitment of macrophages	macrophage migration still occurs	no significant migration	1.8 fold	no effects	25 µM	began to adhere after 4 days	little or no effect	did not increase expression	32±4%	~20±2%	–	–
CC(C)CCC[C@@H](C)[C@H]1CCC2C(CC=O)C([C@@]3(C)CC[C@H](O)CC3=O)CC[C@@]21C (stereo partly drawn) [4a, 3β-Hydroxy-5-oxo-5,6-secocholestan-6-al]	approximately 3 fold	did not increase expression	stimulate dose-dependent recruitment of macrophages	macrophage migration still occurs	no significant migration	greater than 4 fold	no effects	–	induced no cell adherence	little or no effect	did not increase expression	~39±2%	~23±5%	2 fold	about 8 fold
